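Where inhibition never reached the appropriate level, the endpoint shown equals the highest concentration tested. Otherwise, values were interpolated linearly from a five-concentration, 48-hour dose response in 96-well plates. GI50 marks 50% less growth. Definition used: TGI = concentration required for complete inhibition of growth.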
Key:
Assay in all cases: DTP human tumour cell line panel, 48 h
SF-539 CNS = system: SF-539 CNS
OVCAR-8 ovarian = system: OVCAR-8 ovarian
SR leukemia = system: SR leukemia
NCI-H522 lung = system: NCI-H522 lung
HCT-15 colon = system: HCT-15 colon
CCRF-CEM leukemia = system: CCRF-CEM leukemia
K-562 leukemia = system: K-562 leukemia
RXF 393 renal = system: RXF 393 renal
PC-3 prostate = system: PC-3 prostate
T-47D breast = system: T-47D breast

CCN(CC)C(=S)N/N=C(\C)c1ccccc1O
TGI (SF-539 CNS): 54.4 µM
TGI (OVCAR-8 ovarian): > 100 µM
TGI (SR leukemia): > 100 µM
TGI (NCI-H522 lung): 33 µM
TGI (HCT-15 colon): > 100 µM
TGI (CCRF-CEM leukemia): 78 µM
TGI (K-562 leukemia): > 100 µM
TGI (RXF 393 renal): > 100 µM

COc1cc2c(cc1OC)[C@@H](C(O)c1ccccc1)NCC2 (some centres not stated)
TGI (SF-539 CNS): > 100 µM
TGI (OVCAR-8 ovarian): > 100 µM
TGI (SR leukemia): > 100 µM
TGI (NCI-H522 lung): > 100 µM
TGI (HCT-15 colon): > 100 µM
TGI (CCRF-CEM leukemia): > 100 µM
TGI (K-562 leukemia): > 100 µM
TGI (RXF 393 renal): > 100 µM

Cc1cc(N/N=C/c2nc(-c3ccccc3)oc2C)c2cc(Cl)ccc2n1
GI50 (SF-539 CNS): 1.7 µM
TGI (SF-539 CNS): 3.17 µM
GI50 (OVCAR-8 ovarian): 2.04 µM
TGI (OVCAR-8 ovarian): 4.4 µM
GI50 (PC-3 prostate): 1.8 µM
TGI (PC-3 prostate): 3.55 µM
GI50 (HCT-15 colon): 1.68 µM
TGI (HCT-15 colon): 3.37 µM
GI50 (T-47D breast): 2.02 µM
TGI (T-47D breast): 4.22 µM
GI50 (RXF 393 renal): 1.7 µM
TGI (RXF 393 renal): 3.42 µM

O=[N+]([O-])c1cc(Br)cc2c1[nH]c1ccc(Br)cc12
GI50 (SF-539 CNS): 12.2 µM
TGI (SF-539 CNS): 71.7 µM
GI50 (OVCAR-8 ovarian): 11.4 µM
TGI (OVCAR-8 ovarian): > 100 µM
GI50 (NCI-H522 lung): 3.09 µM
TGI (NCI-H522 lung): 40.3 µM
GI50 (PC-3 prostate): 10.2 µM
TGI (PC-3 prostate): > 100 µM
GI50 (HCT-15 colon): 28 µM
TGI (HCT-15 colon): > 100 µM
GI50 (T-47D breast): 6.76 µM
TGI (T-47D breast): 77.9 µM
GI50 (RXF 393 renal): 5.04 µM
TGI (RXF 393 renal): 20.9 µM

O=Cc1[nH]c2ccccc2c1Br
TGI (SF-539 CNS): 34.5 µM
TGI (OVCAR-8 ovarian): 64.4 µM
TGI (SR leukemia): 61.1 µM
TGI (NCI-H522 lung): > 100 µM
TGI (CCRF-CEM leukemia): 99.2 µM
TGI (K-562 leukemia): 47.4 µM
TGI (RXF 393 renal): 67.8 µM

CCCCC(=O)[O-].N.N.N.N.N.[Co+3].[O-][Cl+3]([O-])([O-])[O-]
GI50 (SF-539 CNS): > 100 µM
TGI (SF-539 CNS): > 100 µM
GI50 (OVCAR-8 ovarian): > 100 µM
TGI (OVCAR-8 ovarian): > 100 µM
GI50 (NCI-H522 lung): > 100 µM
TGI (NCI-H522 lung): > 100 µM
GI50 (HCT-15 colon): > 100 µM
TGI (HCT-15 colon): > 100 µM
GI50 (CCRF-CEM leukemia): > 100 µM
TGI (CCRF-CEM leukemia): > 100 µM
GI50 (K-562 leukemia): > 100 µM
TGI (K-562 leukemia): > 100 µM

CC(=O)OC[C@@H]1[C@H]2CC(=O)O[C@H]2C[C@H]1OC(C)=O
TGI (SF-539 CNS): > 100 µM
TGI (OVCAR-8 ovarian): > 100 µM
TGI (SR leukemia): > 100 µM
TGI (NCI-H522 lung): > 100 µM
TGI (HCT-15 colon): > 100 µM
TGI (CCRF-CEM leukemia): > 100 µM
TGI (RXF 393 renal): > 100 µM

CC(C)(C)C(=O)C(c1ccc(-c2cscn2)cc1)c1ccc(-c2cscn2)cc1
TGI (SF-539 CNS): > 56.3 µM
TGI (OVCAR-8 ovarian): > 100 µM
TGI (NCI-H522 lung): > 100 µM
TGI (HCT-15 colon): > 100 µM
TGI (CCRF-CEM leukemia): > 100 µM
TGI (K-562 leukemia): > 100 µM
TGI (RXF 393 renal): 54.7 µM

COc1ccc(/C=C(\C#N)c2cc(OC)c3c(c2)OCO3)cc1
GI50 (SF-539 CNS): < 0.0131 µM
TGI (SF-539 CNS): 11.5 µM
GI50 (OVCAR-8 ovarian): 0.026 µM
TGI (OVCAR-8 ovarian): 34.5 µM
GI50 (SR leukemia): < 0.01 µM
TGI (SR leukemia): > 100 µM
GI50 (NCI-H522 lung): < 0.01 µM
GI50 (PC-3 prostate): 0.0101 µM
TGI (PC-3 prostate): 38.1 µM
GI50 (HCT-15 colon): 0.0118 µM
TGI (HCT-15 colon): > 73.6 µM
GI50 (CCRF-CEM leukemia): 0.0226 µM
TGI (CCRF-CEM leukemia): > 100 µM
GI50 (K-562 leukemia): < 0.01 µM
TGI (K-562 leukemia): > 100 µM
GI50 (RXF 393 renal): < 0.01 µM
TGI (RXF 393 renal): 30.6 µM

CC(=S)NNC(=O)c1ccncc1
TGI (SF-539 CNS): > 100 µM
TGI (OVCAR-8 ovarian): > 100 µM
TGI (SR leukemia): > 100 µM
TGI (NCI-H522 lung): > 100 µM
TGI (HCT-15 colon): > 100 µM
TGI (CCRF-CEM leukemia): > 100 µM
TGI (K-562 leukemia): > 100 µM
TGI (RXF 393 renal): > 100 µM

CN(C)c1ccc(/C=C2\N=C(c3ccc(N)cc3)OC2=O)cc1
TGI (SF-539 CNS): > 100 µM
TGI (OVCAR-8 ovarian): > 100 µM
TGI (NCI-H522 lung): > 100 µM
TGI (HCT-15 colon): > 100 µM
TGI (CCRF-CEM leukemia): > 100 µM
TGI (K-562 leukemia): > 100 µM

COc1ccc(C=NC23CC4CC(CC(C4)C2)C3)cc1
TGI (SF-539 CNS): > 100 µM
TGI (OVCAR-8 ovarian): > 100 µM
TGI (SR leukemia): > 100 µM
TGI (NCI-H522 lung): > 100 µM
TGI (HCT-15 colon): > 100 µM
TGI (CCRF-CEM leukemia): > 100 µM
TGI (K-562 leukemia): > 100 µM
TGI (RXF 393 renal): > 100 µM

Fc1ccc(-c2nnc3sc(-c4cccc(Cl)c4)nn23)cc1Cl
GI50 (SF-539 CNS): > 100 µM
TGI (SF-539 CNS): > 100 µM
GI50 (OVCAR-8 ovarian): > 100 µM
TGI (OVCAR-8 ovarian): > 100 µM
GI50 (NCI-H522 lung): > 100 µM
TGI (NCI-H522 lung): > 100 µM
GI50 (PC-3 prostate): > 100 µM
TGI (PC-3 prostate): > 100 µM
GI50 (HCT-15 colon): > 100 µM
TGI (HCT-15 colon): > 100 µM
GI50 (CCRF-CEM leukemia): > 100 µM
TGI (CCRF-CEM leukemia): > 100 µM
GI50 (K-562 leukemia): > 100 µM
TGI (K-562 leukemia): > 100 µM
GI50 (T-47D breast): > 100 µM
TGI (T-47D breast): > 100 µM
GI50 (RXF 393 renal): 39.5 µM
TGI (RXF 393 renal): > 100 µM

O=C(Nc1ccncc1)C(=O)c1cn(S(=O)(=O)c2ccccc2F)c2ccccc12
GI50 (SF-539 CNS): 1.19 µM
TGI (SF-539 CNS): 7.88 µM
GI50 (OVCAR-8 ovarian): 2.7 µM
TGI (OVCAR-8 ovarian): 52.4 µM
GI50 (NCI-H522 lung): 0.371 µM
TGI (NCI-H522 lung): 4.09 µM
GI50 (PC-3 prostate): 2.35 µM
TGI (PC-3 prostate): > 68.5 µM
GI50 (HCT-15 colon): 0.546 µM
TGI (HCT-15 colon): > 100 µM
GI50 (CCRF-CEM leukemia): 4.35 µM
TGI (CCRF-CEM leukemia): > 100 µM
GI50 (K-562 leukemia): 1.37 µM
TGI (K-562 leukemia): > 100 µM
GI50 (T-47D breast): 2.53 µM
TGI (T-47D breast): > 87.1 µM
GI50 (RXF 393 renal): 2.44 µM
TGI (RXF 393 renal): 9.18 µM

CCS(=O)(=O)c1ccc(OC)c(Nc2nccc(N(C)c3ccc4c(C)[nH]nc4c3)n2)c1
GI50 (SF-539 CNS): 4.17 µM
TGI (SF-539 CNS): 9.86 µM
GI50 (OVCAR-8 ovarian): 7.22 µM
TGI (OVCAR-8 ovarian): > 22.2 µM
GI50 (NCI-H522 lung): 3.57 µM
TGI (NCI-H522 lung): 10.5 µM
GI50 (PC-3 prostate): 5.46 µM
TGI (PC-3 prostate): 22.1 µM
GI50 (HCT-15 colon): 5.3 µM
TGI (HCT-15 colon): 18.3 µM
GI50 (CCRF-CEM leukemia): 8.15 µM
TGI (CCRF-CEM leukemia): > 25 µM
GI50 (K-562 leukemia): 2.79 µM
TGI (K-562 leukemia): 16.8 µM
GI50 (T-47D breast): 4.77 µM
TGI (T-47D breast): 21.9 µM
GI50 (RXF 393 renal): 2.7 µM
TGI (RXF 393 renal): 7.81 µM

CCOC(=O)NC(=O)c1cn(CCCOC(=O)CCCCCCCCC(=O)OCCCn2cc(C(=O)NC(=O)OCC)c(=O)[nH]c2=O)c(=O)[nH]c1=O
TGI (SF-539 CNS): 82.1 µM
TGI (OVCAR-8 ovarian): > 100 µM
TGI (HCT-15 colon): 68.8 µM
TGI (CCRF-CEM leukemia): 21.6 µM
TGI (K-562 leukemia): 49.8 µM

O=C(Nc1nccs1)c1cc(C2=CC=CC([N+](=O)[O-])C=C2)nc(=S)[nH]1 (configuration not stated)
TGI (SF-539 CNS): > 100 µM
TGI (OVCAR-8 ovarian): > 100 µM
TGI (SR leukemia): > 100 µM
TGI (NCI-H522 lung): > 100 µM
TGI (HCT-15 colon): > 100 µM
TGI (CCRF-CEM leukemia): > 100 µM
TGI (K-562 leukemia): > 100 µM
TGI (RXF 393 renal): > 100 µM

CCOC(=O)[C@@H](C)C[C@H](Cc1ccccc1)NC(=O)c1csc([C@@H](C[C@H](C(C)C)N(C)C(=O)[C@H](CCC(C)C)NC(=O)[C@H]2CCCCN2C)OC(C)=O)n1
GI50 (SF-539 CNS): 0.00838 µM
TGI (SF-539 CNS): 0.0289 µM
GI50 (OVCAR-8 ovarian): 0.0125 µM
TGI (OVCAR-8 ovarian): 10.1 µM
GI50 (SR leukemia): < 0.00333 µM
TGI (SR leukemia): 3.77 µM
GI50 (NCI-H522 lung): < 0.00333 µM
TGI (NCI-H522 lung): 0.00708 µM
GI50 (PC-3 prostate): < 0.00333 µM
TGI (PC-3 prostate): 7.15 µM
GI50 (HCT-15 colon): 0.0138 µM
TGI (HCT-15 colon): 4.19 µM
GI50 (CCRF-CEM leukemia): 0.006 µM
TGI (CCRF-CEM leukemia): 4.35 µM
GI50 (K-562 leukemia): < 0.00333 µM
TGI (K-562 leukemia): 4.45 µM
